The text below walks through data of paper PMC11597202, “Novel Thiazole-Fused [4,5-g] or [5,4-g]Quinazolin-8-ones and Their Quinazoline Analogues: Synthesis and Biological Evaluation” (Pharmaceuticals, 2024).

Molecules are shown by their SMILES.

The target in this assay is T1, JAK3 (Homo sapiens, UniProt P52333).
T1 construct: host or cells: Sf9 insect cells (baculovirus)
T1 sequence (P52333 1-1124): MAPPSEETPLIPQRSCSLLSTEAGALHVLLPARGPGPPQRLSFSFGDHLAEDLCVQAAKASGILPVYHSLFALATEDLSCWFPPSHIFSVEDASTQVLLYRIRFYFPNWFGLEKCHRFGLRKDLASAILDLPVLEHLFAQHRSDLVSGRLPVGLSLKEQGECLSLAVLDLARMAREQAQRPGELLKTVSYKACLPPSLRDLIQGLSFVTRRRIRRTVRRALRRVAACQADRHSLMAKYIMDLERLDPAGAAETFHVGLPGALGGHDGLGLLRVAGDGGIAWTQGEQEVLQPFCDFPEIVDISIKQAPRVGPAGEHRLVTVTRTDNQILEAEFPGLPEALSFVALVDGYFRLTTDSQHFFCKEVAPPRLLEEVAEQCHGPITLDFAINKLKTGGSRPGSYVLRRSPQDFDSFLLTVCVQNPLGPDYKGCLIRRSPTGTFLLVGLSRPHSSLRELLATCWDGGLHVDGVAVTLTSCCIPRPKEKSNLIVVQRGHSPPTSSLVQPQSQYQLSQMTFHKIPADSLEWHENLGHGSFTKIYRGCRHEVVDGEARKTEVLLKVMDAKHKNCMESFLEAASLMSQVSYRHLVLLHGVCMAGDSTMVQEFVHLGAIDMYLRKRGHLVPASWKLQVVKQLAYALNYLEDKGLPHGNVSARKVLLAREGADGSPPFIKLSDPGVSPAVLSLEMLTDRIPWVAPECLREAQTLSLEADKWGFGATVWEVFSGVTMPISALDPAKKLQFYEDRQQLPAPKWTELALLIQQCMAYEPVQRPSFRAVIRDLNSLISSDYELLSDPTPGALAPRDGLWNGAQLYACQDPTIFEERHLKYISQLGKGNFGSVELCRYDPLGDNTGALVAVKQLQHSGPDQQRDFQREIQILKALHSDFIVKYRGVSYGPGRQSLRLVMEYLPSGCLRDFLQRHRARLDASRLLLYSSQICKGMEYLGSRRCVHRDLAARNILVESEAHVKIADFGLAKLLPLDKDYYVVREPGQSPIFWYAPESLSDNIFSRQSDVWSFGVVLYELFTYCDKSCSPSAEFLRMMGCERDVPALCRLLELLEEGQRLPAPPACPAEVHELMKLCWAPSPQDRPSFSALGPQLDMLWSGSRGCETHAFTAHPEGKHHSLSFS
As to the kind of experiment: ADP-Glo kinase inhibition assay, JAK3. The assay is classed as biochemical. As to conditions: for remaining activity at 1 µM: 1 μM compound; for remaining activity at 1 µM / remaining activity at 10 µM: percentage of maximum activity of the DMSO control, mean n = 2, 10 µM ATP, read-out: Residual activity JAK3; for remaining activity at 10 µM: 10 μM compound; for Inhibition of JAK3 kinase activity: span over the tested concentrations (1 and 10 μM). The protocol: Kinase enzymatic activities were assayed in 384-well plates using the ADP-Glo^TM assay kit (Promega, Madison, WI, USA) according to the recommendations of the manufacturer. This luminescent ADP detection assay was described by Zegzouti and co-workers and provides a homogeneous and high-throughput screening method to measure kinase activity by quantifying the amount of ADP produced during a kinase reaction. Briefly, the reactions were carried out in a final volume of 6 µL for 30 min at 30 °C in an appropriate kinase buffer (10 mM MgCl2, 1 mM EGTA, 1 mM DTT, 25 mM Tris-HCl pH 7.5, 50 µg/mL heparin), with peptide or protein as substrate in the presence of 10 µM ATP. Peptide substrates were obtained from ProteoGenix (Schiltigheim, France) or Sigma for Histone H1, Poly (L-glutamic acid–L-tyrosine) sodium salt, Casein and MBP. After that, 6 µL of ADP-Glo^TM Kinase Reagent was added to stop the kinase reaction. After an incubation time of 50 min at room temperature (rt), 12 µL of Kinase Detection Reagent was added for one hour at rt. The transmitted signal was measured using the Envision (PerkinElmer, Waltham, MA, USA) microplate luminometer and expressed as Relative Light Units (RLUs). Kinase activities are expressed as percentages of remaining kinase activities detected after treatment with 1 or 10 µM of the tested compounds. The maximum kinase activity was measured in the absence of inhibitor but with an equivalent dose of DMSO (solvent of the tested compounds).
3. Kinase inhibition assays
Kinase enzymatic activities were assayed in 384-well plates using the ADP-GloTM assay kit (Promega, Madison, WI) according to the recommendations of the manufacturer. This luminescent ADP detection assay was described by Zegzouti and co-workers and provides a homogeneous and high-throughput screening method to measure kinase activity by quantifying the amount of ADP produced during a kinase reaction. Briefly, the reactions were carried out in a final volume of 6 µl for 30 min at 30°C in appropriate kinase buffer (10 mM MgCl2, 1 mM EGTA, 1 mM DTT, 25 mM Tris-HCl pH 7.5, 50 µg/mL heparin), with peptide or protein as substrate in the presence of 10 µM ATP. Peptide substrates were obtained from ProteoGenix (Schiltigheim, France) or Sigma for Histone H1, Poly (L-glutamic acid – L-tyrosine) sodium salt, Casein and MBP. After that, 6 µL of ADP-GloTM Kinase Reagent was added to stop the kinase reaction. After an incubation time of 50 min at room temperature (rt), 12 µL of Kinase Detection Reagent was added for 1 h at rt. The transmitted signal was measured using the Envision (PerkinElmer, Waltham, MA) microplate luminometer and expressed in Relative Light Unit (RLU). Kinase activities are expressed in percentages of remaining kinase activities detected after treatment with 1 or 10 µM of the tested compounds. The maximal kinase activity is measured in the absence of inhibitor but with an equivalent dose of DMSO (solvent of the tested compounds).
Table. Human protein kinases tested in the panel: CDK9, HASPIN, PIM1, GSK3b, CK1ε, JAK3, CLK1 […]
Protein Kinase Enzyme Description Substrate1
(Family) (Working concentration)
CDK9/CyclinT Human, recombinant, expressed by Peptide:
(CMGC) baculovirus in Sf9 insect cells […]
CLK1 Human, recombinant, expressed by Peptide: […]
(CMGC) baculovirus in Sf9 insect cells (57.3µM)
DYRK1A Human, recombinant, expressed by Peptide: […]
(CMGC) baculovirus in Sf9 insect cells (10.7µM)
PIM1 Human proto-oncogene, recombinant, Peptide: […]
(CAMK) expressed in bacteria (630 µM)
GSK3 Human, recombinant, expressed by Peptide:
(CMGC) baculovirus in Sf9 insect cells […]pEDEEE 3
HASPIN Human, kinase domain, amino acids 470 to Histone H3 peptide (1-21):
(Other) 798, recombinant, expressed in bacteria […] (8µM)
CK1ε Human, recombinant, expressed by Peptide: […]pAYSITA 2
(CK1) baculovirus in Sf9 insect cells (170µM)
JAK3 Human, recombinant, expressed by Peptide: […]
(TK) baculovirus in Sf9 insect cells (94µM) […]
(In general: ADP-Glo turns the ADP formed in a reaction into a luminescent signal.)

For `COC(=N)c1nc2cc3c(=O)n(Cc4ccccc4)cnc3cc2s1` [Compound 6a, Methyl 7-benzyl-8-oxo-7,8-dihydrothiazolo[4,5-g]quinazoline-2-carbimidate], the remaining activity at 1 µM was found to be 55% and the remaining activity at 10 µM came out at 36%.
As for `COC(=N)c1nc2cc3ncn(Cc4ccccc4)c(=O)c3cc2s1` [Compound 6b, Methyl 7-benzyl-8-oxo-7,8-dihydrothiazolo[5,4-g]quinazoline-2-carbimidate], the remaining activity at 1 µM came to 92% and the remaining activity at 10 µM turned out to be 73%.
For `COC(=N)c1nc2c(ccc3c(=O)n(Cc4ccccc4)cnc32)s1` [Compound 6c, Methyl 7-benzyl-6-oxo-6,7-dihydrothiazolo[5,4-h]quinazoline-2-carbimidate], the remaining activity at 1 µM came to 59% and the remaining activity at 10 µM came out at 44%.
For `COC(=N)c1nc2ccc3c(=O)n(Cc4ccccc4)cnc3c2s1` [Compound 6d, Methyl 7-benzyl-6-oxo-6,7-dihydrothiazolo[4,5-h]quinazoline-2-carbimidate], in that order: 80% and 92%.
Regarding `COC(=N)c1nc2cc3c(Nc4ccc(OC)cc4F)ncnc3cc2s1` [Compound 15a, Methyl 8-[(2-fluoro-4-methoxyphenyl)amino]thiazolo[4,5-g]quinazoline-2-carbimidate], the remaining activity at 1 µM came out at 64%, the remaining activity at 10 µM was 58% and the “Inhibition of JAK3 kinase activity” value is reported as “around 38%”.
For `COC(=N)c1nc2cc3ncnc(Nc4ccc(OC)cc4F)c3cc2s1` [Compound 15b, Methyl 8-[(2-fluoro-4-methoxyphenyl)amino]thiazolo[5,4-g]quinazoline-2-carbimidate], the remaining activity at 1 µM worked out at 68%, the remaining activity at 10 µM was 60% and the “Inhibition of JAK3 kinase activity” value is reported as “around 38%”.
In the case of `COC(=N)c1nc2ccc3ncn(Cc4ccccc4)c(=O)c3c2s1` [Compound I, methyl 8-benzyl-9-oxo-8,9-dihydrothiazolo[5,4-f]quinazoline-2-carbimidate, reference compound], the remaining activity at 1 µM was 48% and the remaining activity at 10 µM came to 52%.
For the compound `COC(=N)c1nc2ccc3ncnc(Nc4ccc(OC)cc4F)c3c2s1` [Compound II, methyl 9-[(2-fluoro-4-methoxyphenyl)amino]thiazolo[5,4-f]quinazoline-2-carbimidate, reference compound], the remaining activity at 1 µM is 69% and the remaining activity at 10 µM stood at 54%.
